Laboratory results published in US9682940B2, “Indazole derivatives useful as CB-1 inverse agonists” (Janssen Pharmaceutica NV, priority 2015, dated 2017).

Experiments:
[1] = target: Human CB2R (Cannabanoid receptor 2) (Homo sapiens (Human), UniProt P34972); experiment: CB-2 in vitro cAMP (HTRF) assay in HEK-293 cells; assay type: cell-based; conditions: HEK-293 cells stably transfected with human CB2R, 250 nM Forskolin, mean where tested more than once, read-out: CB-2 (HEK_cAMP) EC50
Procedure, shortened: (§1)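 HEK-293 cells stably expressing human CB1 or CB2 plated overnight, then tested in HBSS/5 mM HEPES/0.1% BSA with 0.5 mM IBMX and forskolin (1.5 μM working dilution). Intracellular cAMP quantified by competitive HTRF immunoassay (d2-cAMP, cryptate anti-cAMP) against a cAMP standard curve; compounds as 1/3 serial dilutions from 10 mM DMSO stocks.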

[2] = target: Human CB1R (Cannabanoid receptor 1) (Homo sapiens (Human), UniProt P21554); experiment: CB-1 in vitro cAMP (HTRF) assay in HEK-293 cells; assay type: cell-based; conditions: HEK-293 cells stably transfected with human CB1R, 250 nM Forskolin, mean where tested more than once, read-out: CB-1 (HEK_cAMP) EC50
Chain of Human CB1R (Cannabanoid receptor 1) (P21554 whole entry): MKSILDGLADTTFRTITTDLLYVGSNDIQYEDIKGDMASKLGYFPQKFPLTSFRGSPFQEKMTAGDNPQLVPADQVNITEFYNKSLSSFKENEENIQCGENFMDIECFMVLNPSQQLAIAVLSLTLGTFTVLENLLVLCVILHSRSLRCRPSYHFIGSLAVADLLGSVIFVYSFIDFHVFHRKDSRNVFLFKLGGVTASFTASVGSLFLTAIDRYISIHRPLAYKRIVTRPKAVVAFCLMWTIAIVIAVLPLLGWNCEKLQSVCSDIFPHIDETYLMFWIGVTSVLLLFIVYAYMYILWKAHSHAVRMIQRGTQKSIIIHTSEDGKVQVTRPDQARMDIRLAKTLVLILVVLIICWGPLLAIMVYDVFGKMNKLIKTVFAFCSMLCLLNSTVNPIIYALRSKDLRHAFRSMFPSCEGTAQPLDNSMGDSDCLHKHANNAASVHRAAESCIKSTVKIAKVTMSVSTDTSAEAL
Procedure, shortened: as §1

Chain of Human CB2R (Cannabanoid receptor 2) (P34972 whole entry): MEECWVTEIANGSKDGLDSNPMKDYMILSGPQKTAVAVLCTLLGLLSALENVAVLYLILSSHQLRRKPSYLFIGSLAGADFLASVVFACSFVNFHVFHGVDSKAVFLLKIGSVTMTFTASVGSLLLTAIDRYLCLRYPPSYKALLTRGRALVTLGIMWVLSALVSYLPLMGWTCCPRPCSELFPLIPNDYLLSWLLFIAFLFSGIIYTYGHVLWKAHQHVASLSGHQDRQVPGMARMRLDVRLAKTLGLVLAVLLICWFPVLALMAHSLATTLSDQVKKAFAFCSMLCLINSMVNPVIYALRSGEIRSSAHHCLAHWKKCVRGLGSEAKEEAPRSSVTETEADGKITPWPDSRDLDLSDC

SMILES | EC50 [1] [nM] | EC50 [2] [nM]
O=C(O)Cc1cccc(N2CCC(c3n[nH]c4ccc(C(c5ccc(Cl)cc5)c5ccc(Cl)cc5)cc34)CC2)c1 [Compound 214] | > 10000 | 3240
O=C(O)Cc1ccc(N2CCC(c3n[nH]c4ccc(C(c5ccc(Cl)cc5)c5ccc(Cl)cc5)cc34)CC2)cc1 [Compound 215] | > 10000 | 2960
O=C(O)COc1cccc(N2CCC(c3n[nH]c4ccc(C(c5ccc(Cl)cc5)c5ccc(Cl)cc5)cc34)CC2)c1 [Compound 216] | > 10000 | 1280
NC(=O)COc1ccc(N2CCC(c3n[nH]c4ccc(C(c5ccc(Cl)cc5)c5ccc(Cl)cc5)cc34)CC2)cc1 [Compound 217] | 4100 | 1030
NC(=O)c1cccc(N2CCC(c3n[nH]c4ccc(C(c5ccc(Cl)cc5)c5ccc(Cl)cc5)cc34)CC2)c1 [Compound 218] | > 10000 | 265
O=S(=O)(C(F)F)N1CCC(c2n[nH]c3ccc(C(c4ccc(Cl)cc4)c4ccc(Cl)cc4)cc23)CC1 [Compound 219] | > 10000 | 1540
NC(=O)c1cccc(CN2CCC(c3n[nH]c4ccc(C(c5ccc(Cl)cc5)c5ccc(Cl)cc5)cc34)CC2)c1 [Compound 220] | > 10000 | 27
O=C(O)c1ccc(CN2CCC(c3n[nH]c4ccc(C(c5ccc(Cl)cc5)c5ccc(Cl)cc5)cc34)CC2)cc1 [Compound 221] | > 42000 | 134
NC(=O)c1ccc(CN2CCC(c3n[nH]c4ccc(C(c5ccc(Cl)cc5)c5ccc(Cl)cc5)cc34)CC2)cc1 [Compound 222] | > 10000 | 163
NC(=O)Cc1ccc(N2CCC(c3n[nH]c4ccc(C(c5ccc(Cl)cc5)c5ccc(Cl)cc5)cc34)CC2)cc1 [Compound 223] | > 10000 | 699
NC(=O)COc1ccc(N2CCC(c3n[nH]c4ccc(C(c5ccc(Cl)cc5)c5ccc(Cl)cc5)cc34)CC2)cc1 [Compound 224] | > 10000 | 2080
O=C(O)c1cccc(CN2CCC(c3n[nH]c4ccc(C(c5ccc(Cl)cc5)c5ccc(Cl)cc5)cc34)CC2)c1 [Compound 225] | 3300 | 56
Nc1ccc(C(c2ccc(Cl)cc2)c2ccc3[nH]nc(N4CCN(S(=O)(=O)C(F)(F)F)CC4)c3c2)cc1 (centres unmarked) [Compound 226] | 5500 | 8
O=C(O)c1csc(CN2CCC(c3nn(C4CC4)c4ccc(C(c5ccc(Cl)cc5)c5ccc(Cl)cc5)cc34)CC2)c1 [Compound 227] | > 10000 | 84
O=C(O)c1ccc(CN2CCC(c3c4cc(C(c5ccc(Cl)cc5)c5ccc(Cl)cc5)ccc4nn3C3CC3)CC2)o1 [Compound 228, 5-((4-(5-(bis(4-chlorophenyl)methyl)-2-cyclopropyl-2H-indazol-3-yl)piperidin-1-yl)methyl)furan-2-carboxylic acid] | > 10000 | 20
O=C(NCCO)c1ccc(-n2nc(C3CCN(S(=O)(=O)C(F)(F)F)CC3)c3cc(C(c4ccc(Cl)cc4)c4ccc(Cl)cc4)ccc32)cc1 [Compound 229] | > 10000 | 37
O=C(O)CCNC(=O)c1ccc(-n2nc(C3CCN(S(=O)(=O)C(F)(F)F)CC3)c3cc(C(c4ccc(Cl)cc4)c4ccc(Cl)cc4)ccc32)cc1 [Compound 230] | > 10000 | 3260
O=C(O)c1ccc([C@H](c2ccc(Cl)cc2)c2ccc3[nH]nc(C4CCN(S(=O)(=O)C(F)(F)F)CC4)c3c2)cc1 [Compound 231] | > 10000 | 4200
O=C(O)c1ccc([C@H](c2ccc(Cl)cc2)c2ccc3[nH]nc(N4CCN(S(=O)(=O)C(F)(F)F)CC4)c3c2)cc1 [Compound 233] | > 10000 | 3550
NC(=O)c1csc(CS(=O)(=O)N2CCC(c3nn(C4CC4)c4ccc(C(c5ccc(Cl)cc5)c5ccc(Cl)cc5)cc34)CC2)c1 [Compound 235] | > 10000 | 22
O=C(O)c1ccc(CS(=O)(=O)N2CCC(c3nn(C4CC4)c4ccc(C(c5ccc(Cl)cc5)c5ccc(Cl)cc5)cc34)CC2)s1 [Compound 236] | > 10000 | 68
NC(=O)c1csc(CN2CCC(c3c4cc(C(c5ccc(Cl)cc5)c5ccc(Cl)cc5)ccc4nn3C3CC3)CC2)c1 [Compound 237, 5-((4-(5-(bis(4-chlorophenyl)methyl)-2-cyclopropyl-2H-indazol-3-yl)piperidin-1-yl)methyl)thiophene-3-carboxamide] | > 10000 | 5

SMILES | EC50 [1] [nM] | EC50 [2] [nM]
O=C(O)c1ccc(C(c2ccc(Cl)cc2)c2ccc3nn(C4CC4)c(C4CCN(S(=O)(=O)C(F)(F)F)CC4)c3c2)cc1 (centres unmarked) [Compound 238, 4-[(4-chlorophenyl) ([2-cyclopropyl-3-[1-(trifluoromethane)sulfonylpiperidin-4-yl]-2H-indazol-5-yl])methyl]benzoic acid] | > 10000 | 198
O=C(O)c1csc(CN2CCC(c3c4cc(C(c5ccc(Cl)cc5)c5ccc(Cl)cc5)ccc4nn3C3CC3)CC2)c1 [Compound 239, 5-((4-(5-(bis(4-chlorophenyl)methyl)-2-cyclopropyl-2H-indazol-3-yl)piperidin-1-yl)methyl)thiophene-3-carboxylic acid] | > 10000 | 43
O=C(O)c1ccc(C(c2ccc(Cl)cc2)c2ccc3[nH]nc(C4CCN(S(=O)(=O)C(F)(F)F)CC4)c3c2)cn1 (centres unmarked) [Compound 241] | > 10000 | 1630
O=C(O)c1ccc(CN2CCC(c3c4cc(C(c5ccc(Cl)cc5)c5ccc(Cl)cc5)ccc4nn3C3CC3)CC2)s1 [Compound 242, 5-((4-(5-(bis(4-chlorophenyl)methyl)-2-cyclopropyl-2H-indazol-3-yl)piperidin-1-yl)methyl)thiophene-2-carboxylic acid] | > 10000 | 16
O=C(O)c1cccc(CN2CCC(c3nn(C4CC4)c4ccc(C(c5ccc(F)cc5)c5ccc(F)cc5)cc34)CC2)c1 [Compound 243] | > 10000 | 285
Cc1ccc(C(c2ccc(C)cc2)c2ccc3c(c2)c(C2CCN(Cc4cccc(C(=O)O)c4)CC2)nn3C2CC2)cc1 [Compound 244] | > 10000 | 48
O=C(O)c1cccc(CN2CCC(c3nn(C4CC4)c4ccc(C(c5ccccc5)c5ccc(Cl)cc5)cc34)CC2)c1 (centres unmarked) [Compound 245] | > 10000 | 20
O=C(O)c1cccc(CN2CCC(c3nn(C4CC4)c4ccc(C(c5ccc(F)cc5)c5ccc(Cl)cc5)cc34)CC2)c1 (centres unmarked) [Compound 246] | > 10000 | 29
Cc1ccc(C(c2ccc(Cl)cc2)c2ccc3c(c2)c(C2CCN(Cc4cccc(C(=O)O)c4)CC2)nn3C2CC2)cc1 (centres unmarked) [Compound 247] | > 10000 | 20
O=C(O)c1cccc(CN2CCC(c3nn(C4CC4)c4ccc(C(c5ccc(Cl)cc5)c5ccc(C(F)(F)F)cc5)cc34)CC2)c1 (centres unmarked) [Compound 248] | > 10000 | 41
NC(=O)c1ccc(C(c2ccc(Cl)cc2)c2ccc3nn(C4CC4)c(C4CCN(S(=O)(=O)C(F)(F)F)CC4)c3c2)cc1 (centres unmarked) [Compound 249, 4-((4-chlorophenyl)(2-cyclopropyl-3-(1-(trifluoromethylsulfonyl)piperidin-4-yl)-2H-indazol-5-yl)methyl)benzamide] | > 10000 | 15
O=C(O)c1ccc(CN2CCC(c3nn(C4CC4)c4ccc(C(c5ccc(Cl)cc5)c5ccc(Cl)cc5)cc34)CC2)o1 [Compound 250] | > 10000 | 43
O=C(O)c1cccc(CN2CCC(c3c4cc(C(c5ccc(Cl)cc5)c5ccc(Cl)cc5)ccc4nn3C3CC3)CC2)n1 [Compound 251, 6-((4-(5-(bis(4-chlorophenyl)methyl)-2-cyclopropyl-2H-indazol-3-yl)piperidin-1-yl)methyl)picolinic acid] | > 10000 | 14
O=C(O)c1ccc(CN2CCC(c3c4cc(C(c5ccc(Cl)cc5)c5ccc(Cl)cc5)ccc4nn3C3CC3)CC2)nc1 [Compound 252] | > 10000 | 77
NC(=O)c1ccc(C(c2ccc(Cl)cc2)c2ccc3[nH]nc(C4CCN(S(=O)(=O)C(F)(F)F)CC4)c3c2)cn1 (centres unmarked) [Compound 253] | 6930 | 11
O=C(O)c1ccc(CN2CCC(c3nn(C4CC4)c4ccc(C(c5ccc(Cl)cc5)c5ccc(Cl)cc5)cc34)CC2)s1 [Compound 254] | > 10000 | 16
O=C(O)c1cncc(CN2CCC(c3c4cc(C(c5ccc(Cl)cc5)c5ccc(Cl)cc5)ccc4nn3C3CC3)CC2)c1 [Compound 255, 5-((4-(5-(bis(4-chlorophenyl)methyl)-2-cyclopropyl-2H-indazol-3-yl)piperidin-1-yl)methyl)nicotinic acid] | > 10000 | 34
O=C(O)c1ccc(CN2CCC(c3c4cc(C(c5ccc(Cl)cc5)c5ccc(Cl)cc5)ccc4nn3C3CC3)CC2)cc1 [Compound 256, 4-((4-(5-(bis(4-chlorophenyl)methyl)-2-cyclopropyl-2H-indazol-3-yl)piperidin-1-yl)methyl)benzoic acid] | > 10000 | 30
O=C(O)c1cccc(CN2CCC(c3c4cc(C(c5ccc(Cl)cc5)c5ccc(Cl)cc5)ccc4nn3C3CC3)CC2)c1 [Compound 257, 3-((4-(5-(bis(4-chlorophenyl)methyl)-2-cyclopropyl-2H-indazol-3-yl)piperidin-1-yl)methyl)benzoic acid] | > 5000 | 13
COC(=O)c1ccc(CN2CCC(c3n[nH]c4ccc(C(c5ccc(Cl)cc5)c5ccc(Cl)cc5)cc34)CC2)cc1 [Compound 258] | > 42000 | 428
COC(=O)c1cccc(CN2CCC(c3n[nH]c4ccc(C(c5ccc(Cl)cc5)c5ccc(Cl)cc5)cc34)CC2)c1 [Compound 259] | > 42000 | 374
